Among the data in patent US10092570B2 (Incyte Corporation, priority 2011, dated 2018) are IC50 values, retold here.

Where a name gives a salt, the structure may show the parent alone. Where only a bound is given, the exact number is not on record here.

PI3Kδ (p110δ/p85α), sequence (O00329 whole entry): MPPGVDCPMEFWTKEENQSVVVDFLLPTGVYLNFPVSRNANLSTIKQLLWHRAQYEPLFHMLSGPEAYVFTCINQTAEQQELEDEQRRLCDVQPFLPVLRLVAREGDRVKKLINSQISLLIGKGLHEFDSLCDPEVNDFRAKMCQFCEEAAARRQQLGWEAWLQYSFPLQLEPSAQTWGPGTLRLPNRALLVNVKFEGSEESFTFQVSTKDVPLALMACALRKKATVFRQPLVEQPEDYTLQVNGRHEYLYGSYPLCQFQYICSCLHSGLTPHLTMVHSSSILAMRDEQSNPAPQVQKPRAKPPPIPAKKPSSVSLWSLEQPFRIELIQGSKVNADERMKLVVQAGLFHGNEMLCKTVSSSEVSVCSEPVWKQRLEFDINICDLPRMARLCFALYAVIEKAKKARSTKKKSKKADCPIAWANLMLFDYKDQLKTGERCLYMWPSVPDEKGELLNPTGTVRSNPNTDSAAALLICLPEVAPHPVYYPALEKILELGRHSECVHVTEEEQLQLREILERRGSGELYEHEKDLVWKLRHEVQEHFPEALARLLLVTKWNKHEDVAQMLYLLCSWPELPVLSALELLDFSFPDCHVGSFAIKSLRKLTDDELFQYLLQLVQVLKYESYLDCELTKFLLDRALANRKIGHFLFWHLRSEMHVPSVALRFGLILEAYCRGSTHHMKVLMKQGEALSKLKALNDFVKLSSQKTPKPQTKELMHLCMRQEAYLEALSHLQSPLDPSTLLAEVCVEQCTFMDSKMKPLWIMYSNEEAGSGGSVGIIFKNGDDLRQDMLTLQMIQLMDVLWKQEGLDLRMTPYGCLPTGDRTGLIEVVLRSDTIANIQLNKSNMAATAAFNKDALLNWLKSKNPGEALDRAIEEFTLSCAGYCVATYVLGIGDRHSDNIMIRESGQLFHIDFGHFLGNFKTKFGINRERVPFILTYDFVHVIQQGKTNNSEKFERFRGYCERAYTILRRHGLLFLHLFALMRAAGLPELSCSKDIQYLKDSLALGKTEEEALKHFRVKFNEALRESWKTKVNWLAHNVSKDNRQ
PI3Kδ (p110δ/p85α), sequence (P27986 whole entry partner): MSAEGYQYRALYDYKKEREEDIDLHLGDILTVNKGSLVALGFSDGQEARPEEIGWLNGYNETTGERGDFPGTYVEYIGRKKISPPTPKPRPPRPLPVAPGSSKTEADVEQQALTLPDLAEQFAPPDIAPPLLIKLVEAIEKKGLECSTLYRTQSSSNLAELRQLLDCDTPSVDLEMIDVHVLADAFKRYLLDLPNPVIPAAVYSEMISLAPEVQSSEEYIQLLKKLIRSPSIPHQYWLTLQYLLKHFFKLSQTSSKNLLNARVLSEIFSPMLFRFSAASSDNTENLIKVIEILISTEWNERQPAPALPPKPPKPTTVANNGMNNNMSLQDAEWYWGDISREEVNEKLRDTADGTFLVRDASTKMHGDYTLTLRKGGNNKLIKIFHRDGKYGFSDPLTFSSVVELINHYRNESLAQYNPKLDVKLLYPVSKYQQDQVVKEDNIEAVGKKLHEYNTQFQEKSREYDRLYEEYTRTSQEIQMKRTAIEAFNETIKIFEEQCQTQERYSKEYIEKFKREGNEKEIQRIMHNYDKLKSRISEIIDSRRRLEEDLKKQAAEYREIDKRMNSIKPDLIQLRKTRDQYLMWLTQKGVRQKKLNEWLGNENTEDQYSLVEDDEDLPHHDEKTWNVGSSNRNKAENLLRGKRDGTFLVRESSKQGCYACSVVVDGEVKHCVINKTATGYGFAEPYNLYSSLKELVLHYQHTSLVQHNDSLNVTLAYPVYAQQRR

The target of the assay is PI3Kδ (p110δ/p85α) (Homo sapiens (Human), UniProt O00329). The experiment in a line: Example A3: PI3Kδ scintillation proximity assay. In kind it is biochemical. To be noted: scintillation proximity assay, 20 μM ATP, 4 nM PI3Kδ; read-out: PI3Kδ SPA IC50. A digest of the protocol:
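p110δ/p85α (4 nM) phosphorylated 20 μM PIP2 with 20 μM ATP plus [γ-33P]ATP in MOPS pH 6.7, MgCl2, DTT, CHAPS, 0.5% DMSO, at RT. Stopped with EDTA/excess ATP, product captured on WGA SPA beads overnight and counted; IC50 from percent control activity versus log inhibitor.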
On the technique in general: In a scintillation proximity assay essentially only radioactivity close to the scintillant gives light.
Usually IC50 stands for the concentration that inhibits the measured activity by half. For `CCOc1c(C(C)n2nc(C)c3c(N)ncnc32)cc(Cl)c(C)c1C1CN(C(=O)c2cnn(C)c2)C1` (stereo not shown) [Example 101, 1-[1-(5-Chloro-2-ethoxy-4-methyl-3-{1-[(1-methyl-1H-pyrazol-4-yl)carbonyl]azetidin-3-yl}phenyl)ethyl]-3-methyl-1H-pyrazolo[3,4-d]pyrimidin-4-amine trifluoroacetate], the IC50 was less than 10 nM.
Turning to `CCOc1c(C(C)n2nc(C)c3c(N)ncnc32)cc(Cl)c(C)c1C1CN(C(C)C)C1` (stereo not shown) [Example 94, 1-{1-[5-Chloro-2-ethoxy-3-(1-isopropylazetidin-3-yl)-4-methylphenyl]ethyl}-3-methyl-1H-pyrazolo[3,4-d]pyrimidin-4-amine bis(trifluoroacetate)], the IC50 is less than 10 nM.
As for `COc1c(C(C)n2nc(C)c3c(N)ncnc32)cc(Cl)c(C#N)c1C1CN(C2COC2)C1` (single isomer, unassigned) [Example 274, 4-[1-(4-Amino-3-methyl-1H-pyrazolo[3,4-d]pyrimidin-1-yl)ethyl]-6-chloro-3-methoxy-2-(1-oxetan-3-ylazetidin-3-yl)benzonitrile], the 50% inhibitory concentration (IC50) was less than 10 nM.
As for `CCOc1c(C(C)n2nc(C)c3c(N)ncnc32)cc(Cl)c(F)c1C1COC(=O)N1` (single isomer, unassigned) [Example 353, 4-{3-[1-(4-amino-3-methyl-1H-pyrazolo[3,4-d]pyrimidin-1-yl)ethyl]-5-chloro-2-ethoxy-6-fluorophenyl}-1,3-oxazolidin-2-one], the IC50 is greater than 500 nM.
With `COc1c(C(C)n2nc(C)c3c(N)ncnc32)cc(Cl)c(F)c1C1CN(CCO)C1` (racemic) [Example 71, 2-(3-{3-[1-(4-Amino-3-methyl-1H-pyrazolo[3,4-d]pyrimidin-1-yl)ethyl]-5-chloro-6-fluoro-2-methoxyphenyl}azetidin-1-yl)ethanol] the figure was less than 10 nM; with `COc1c(C(C)n2cc(C)c3c(N)ncnc32)cc(Cl)c(C)c1-c1ccc(C(=O)N(C)C)nc1` (racemic) [Example 42, 5-{3-[1-(4-Amino-5-methyl-7H-pyrrolo[2,3-d]pyrimidin-7-yl)ethyl]-5-chloro-2-methoxy-6-methylphenyl}-N,N-dimethylpyridine-2-carboxamide], less than 10 nM.
With `CCOc1c(C(C)n2nc(C)c3c(N)ncnc32)cc(Cl)c(C)c1-c1cnn(C)c1` (single isomer, unassigned) [Example 197, 1-(1-(5-chloro-2-ethoxy-4-methyl-3-(1-methyl-1H-pyrazol-4-yl)phenyl)ethyl)-3-methyl-1H-pyrazolo[3,4-d]pyrimidin-4-amine] the figure was less than 10 nM; with `CCOc1c(C(C)n2nc(C)c3c(N)ncnc32)cc(Cl)c(C#N)c1C1CN(CC#N)C1` (single isomer, unassigned) [Example 235, 4-[1-(4-Amino-3-methyl-1H-pyrazolo[3,4-d]pyrimidin-1-yl)ethyl]-6-chloro-2-[1-(cyanomethyl)azetidin-3-yl]-3-ethoxybenzonitrile], less than 10 nM.
On to `CCOc1c(C(C)n2nc(C)c3c(N)ncnc32)cc(Cl)c(C#N)c1C1CN(C2CCOC2)C1` (single isomer, unassigned) [Example 228, 4-[1-(4-Amino-3-methyl-1H-pyrazolo[3,4-d]pyrimidin-1-yl)ethyl]-6-chloro-3-ethoxy-2-[1-(tetrahydrofuran-3-yl)azetidin-3-yl]benzonitrile], for which the IC50 was less than 10 nM.
As to `COc1c(C(C)n2nc(C)c3c(N)ncnc32)cc(Cl)c(C)c1C1CN(CC(C)(C)O)C1` (stereo not shown) [Example 158, 1-(3-{3-[1-(4-Amino-3-methyl-1H-pyrazolo[3,4-d]pyrimidin-1-yl)ethyl]-5-chloro-2-methoxy-6-methylphenyl}azetidin-1-yl)-2-methylpropan-2-ol], the IC50 is less than 10 nM.
